The source of these data is patent publication US20140364434A1, “Biomarkers for Prediction of Response to PARP Inhibition in Breast Cancer” (The Regents of the University of Califonia, priority 2011, published 2014).

Series [1] has as its system sporadic triple negative breast cancer. The following applies: cited from earlier work.
Series [2] relates to hereditary BRCA1/2-related breast cancer. To be noted: cited from earlier work.
Series [3] relates to metastatic triple negative breast cancer. To be noted: cited from earlier work.
The subject of a further series is HS578T. The series can be described thus: growth inhibition assay, sensitivity to olaparib (SF50). Type of series: cell-based, human. The protocol: (§1) Cells were exposed continuously to the inhibitor, and medium and inhibitor were replaced every four days. After 15 days, cells were fixed and stained with sulphorhodamine-B (Sigma, St. Louis, USA) and a colorimetric assay performed as described previously. Surviving fractions (SFs) were calculated and drug sensitivity curves determined with the Four Parameter Logistic Regression model as previously described. […] Nature 2005, 434(7035):917-921, Edwards S L, Brough R, Lord […], Boyd […], Ashworth A: […] Nature 2008, 451(7182):1111-1115]. […] Oncogene 30 (29):3222-3233. doi:10.1038/one.2011.421). A detailed description of the availability and preprocessing of all molecular data sets is provided below and [[…], et al., (2012) Subtype and pathway specific responses to anticancer compounds in breast cancer. […] These cells mirror many of the transcriptional and genomic characteristics of primary breast tumors and have been used to model responses to a large number of experimental and approved therapeutic compounds [Neve R M, Chin […], Clark L, Bayani N, Coppe J P, Tong F et al: A collection of breast cancer cell lines for the study of functionally distinct cancer subtypes. […] (2012) Subtype and pathway specific responses to anticancer compounds in breast cancer. […] Cell lines were divided into a group of 15 resistant and 7 sensitive cell lines, based on an SF50 threshold of 1 μM. […] Surviving fractions (SFs) were calculated and drug sensitivity curves determined with the Four Parameter Logistic Regression model as previously described [Farmer H, McCabe N, Lord C J, Tutt A N, Johnson D A, Richardson […], Dillon […], Knights C et al: Targeting the DNA repair defect in BRCA mutant cells as a therapeutic strategy. Nature 2005, 434(7035):917-921].\

In another series the test system is HCC1143. Described as above. Type of series: cell-based, human. The protocol:
as §1

A further series relates to CAMA1. The description is as above. It is filed as cell-based, human. The procedure:
as §1

In a further series the test system is HCC1428. Described as above. Type of series: cell-based, human. The protocol: as §1
In another series the test system is HCC1954. Described as above. It is filed as cell-based, human. The protocol: as §1
The test system of a further series is BT549. The series is described as above. It is filed as cell-based, human. The procedure:
as §1

The next series has as its system BT20. The series is described as above. Type of series: cell-based, human. The procedure:
as §1

In a further series the test system is SUM149PT. Described as above. It is filed as cell-based, human. The procedure:
as §1

Another series deals with MDAMB436. The series is described as above. It is filed as cell-based, human. The procedure:
as §1

The next series deals with T47D. Described as above. Type of series: cell-based, human. The protocol:
as §1

The subject of another series is MDAMB134VI. The description is as above. Type of series: cell-based, human. The protocol: as §1
A further series concerns MDAMB231. Described as above. Type of series: cell-based, human. The protocol:
as §1

For another series, the system named is MDAMB468. The description is as above. It is filed as cell-based, human. The procedure: as §1
The test system of another series is BT474. The description is as above. Type of series: cell-based, human. The procedure:
as §1

In the next series the test system is MDAMB157. Described as above. It is filed as cell-based, human. The protocol:
as §1

The next series relates to HCC38. The description is as above. It is filed as cell-based, human. The procedure:
as §1

A further series has as its system MDAMB453. Described as above. Type of series: cell-based, human. The procedure: as §1
The subject of a further series is SUM159PT. Described as above. It is filed as cell-based, human. The procedure:
as §1

Another series deals with SKBR3. The description is as above. It is filed as cell-based, human. The procedure: as §1
The next series relates to HCC70. The series is described as above. Type of series: cell-based, human. The procedure:
as §1

In the next series the test system is HCC202. The description is as above. It is filed as cell-based, human. The protocol: as §1
Another series has as its system MCF7. The series is described as above. It is filed as cell-based, human. The protocol: as §1
The test system of series [4] is carriers of a BRCA1/2 mutation and patients without known BRCA mutations. The following applies: cited from earlier work.
Series [5] deals with BRCA1/2 mutation carriers. To be noted: monotherapy; BRCA1/2 mutation carriers who had previously received several courses of chemotherapy; cited from earlier work.
Series [6] concerns panel of 22 breast cancer cell lines. The series can be described thus: growth inhibition assay, whole panel (SF50). It is filed as cell-based, human. The procedure:
as §1

[7] abbreviates: heavily pre-treated sporadic triple negative breast cancer.
Setting [8] is: read-out: Olaparib SF50, continuous exposure 15 days, sulphorhodamine-B.
The mark [9] stands for this setting: read-out: olaparib SF50, Table 9.

pIC50: −log10 of the molar value. Like-named read-outs stand apart in the source and are kept apart here.

For the compound `C[C@]1(c2nc3c(C(N)=O)cccc3[nH]2)CCCN1` [ABT-888], the “activity of the combination with temozolomide” value in series [1] (setting [7]) is on record as “no evidence of activity”. In series [2], the “efficacy combined with DNA-damaging agent temozolomide” value is recorded as “efficacious”.

With `NC(=O)c1ccc(I)c([N+](=O)[O-])c1` [BSI-201], the “survival, phase II clinical trial” value in series [3] (combined with gemcitabine/carboplatin chemotherapy) was “dramatic survival advantage”. Moreover, in [3] (combined with gemcitabine/carboplatin), the “confirmation in randomized, open-label phase III study” value is recorded as “could not be confirmed”.

As for `NC(=O)c1cccc2cn(-c3ccc([C@@H]4CCCNC4)cc3)nc12` [MK-4827], the “efficacy as single agent” value in series [2] is listed as “efficacious”.

Turning to `O=C(c1cc(Cc2n[nH]c(=O)c3ccccc23)ccc1F)N1CCN(C(=O)C2CC2)CC1` [Olaparib], the pIC50 was 5.18 with HS578T (setting [8]); 5.18 in the series on HS578T (setting [9]); 7.68 with HCC1143 (setting [8]); 7.68 in the series on HCC1143 (setting [9]); less than 4.30 with CAMA1 (setting [8]); less than 4.30 with CAMA1 (setting [9]). Moreover, the pIC50 in the series on HCC1428 (setting [8]) was less than 4.30; with HCC1428 (setting [9]), less than 4.30; in the series with HCC1954 (setting [8]), 4.81; in the series on HCC1954 (setting [9]), 4.81; in the series on BT549 (setting [8]), 4.67; in the series on BT549 (setting [9]) it was 4.67. In addition, the pIC50 with BT20 (setting [8]) was less than 4.30; in the series with BT20 (setting [9]), less than 4.30; in the series with SUM149PT (setting [8]), 7.79; in the series with SUM149PT (setting [9]) it was 7.79; with MDAMB436 (setting [8]), 9.36; with MDAMB436 (setting [9]), 9.36. Further, the pIC50 in the series with T47D (setting [8]) was 4.70; in the series with T47D (setting [9]), 4.70; in the series with MDAMB134VI (setting [8]) it was 4.51; in the series on MDAMB134VI (setting [9]), 4.51; in the series with MDAMB231 (setting [8]), 4.52; in the series on MDAMB231 (setting [9]), 4.52. Also, the pIC50 in the series on MDAMB468 (setting [8]) was 6.29; with MDAMB468 (setting [9]), 6.29; in the series with BT474 (setting [8]), 4.49; in the series with BT474 (setting [9]) it was 4.49; in the series with MDAMB157 (setting [8]), 5.62; in the series with MDAMB157 (setting [9]), 5.62. For the same compound, the pIC50 in the series on HCC38 (setting [8]) is less than 4.30; in the series on HCC38 (setting [9]), less than 4.30; in the series on MDAMB453 (setting [8]), 8.04; in the series on MDAMB453 (setting [9]), 8.04; in the series on SUM159PT (setting [8]), 4.79; in the series on SUM159PT (setting [9]) it was 4.79. Further, the pIC50 in the series on SKBR3 (setting [8]) is less than 4.30; in the series on SKBR3 (setting [9]) it was less than 4.30; with HCC70 (setting [8]), 6.18; with HCC70 (setting [9]), 6.18; in the series with HCC202 (setting [8]), 6.38; with HCC202 (setting [9]), 6.38. Further, the pIC50 in the series with MCF7 (setting [8]) is 4.83; in the series with MCF7 (setting [9]), 4.83; in [6] (5 cell lines of the panel, read-out: SF50 not reached at the maximum treatment concentration), less than 4.30; in series [6] (read-out: concentration of olaparib needed to reduce survival to 50% (SF50), lower end of the range, lowest SF50 among 22 breast cancer cell lines) it was 9.36; in series [6] (read-out: concentration of olaparib needed to reduce survival to 50% (SF50), upper end of the range, highest SF50 reached among 22 breast cancer cell lines) it was 4.49. Moreover, the “antitumor activity, phase 1 trial” value in [4] (BRCA1/2 mutation carriers vs patients without known BRCA mutations) was “has antitumor activity for the majority of carriers of a BRCA1/2 mutation but not for patients without known BRCA mutations”. Besides, the “adverse effects, phase 1 trial” value in series [4] (compared with conventional chemotherapy) is recorded as “only a few of the adverse effects of conventional chemotherapy”. Also, in series [1] (setting [7]), the “results as single agent” value was “negative results”. Besides, the “response to monotherapy, phase 2 trial” value in series [1] (olaparib monotherapy, triple negative breast cancer patients) is reported as “largely did not respond”. The objective response rates in [5] is given as 41%. The “efficacy as single agent” value in series [2] was “efficacious”.
